According to patent US20250179073A1, “TRICYCLIC HETEROCYCLE COMPOUNDS AS IAP ANTAGONISTS” (Ascentage Pharma (Suzhou) Co., Ltd., priority 2022, published 2025):
pIC50: −log10 of the molar value. Each block holds one compound with its values, some of them ahead of it.

Assays:
MDA-MB-231 cells = experiment: Cell proliferation assay (CellTiter-Glo), MDA-MB-231; assay type: cell-based; conditions: Homo sapiens, MDA-MB-231, 72 h, 72 h treatment, Celltiter-Glo luminescence
Outline: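 Compounds tested over ten concentrations ([…]) for 72 h on EVSA-T cells in MEM/10% FBS and MDA-MB-231 cells in RPMI-1640/10% FBS, seeded at 10000/well. Luminescent CellTiter-Glo readout; IC50 fitted after normalisation to controls.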

EVSA-T cells = experiment: Cell proliferation assay (CellTiter-Glo), EVSA-T; assay type: cell-based; conditions: Homo sapiens, EVSA-T, 72 h, 72 h treatment, Celltiter-Glo luminescence
Description: Example 238: Cell Proliferation Assay
MDA-MB-231 and EVSA-T cells (10000 cells/well) were plated onto 96-well plates (Corning, Cat #3917) in 95 μL of medium (RPMI-1640 containing 10% FBS and MEM containing 10% FBS, respectively). Compounds with various concentrations ([…]) were added to the wells. After treatment for 72 h, 30 μL of Celltiter-Glo reagent (Promega, Cat #G7573) was added and incubated at room temperature for 15 min, then the luminescent signal was determined using a microplate reader (Biotek, SynergyH1). The inhibitor dose-response curves were analyzed using normalized IC50 regression curve fitting with control based normalization.

SMILES: COc1nc2c(Cc3ccc(F)cc3)cc3c(n2n1)C(C)(C)CN3C(=O)CN1C[C@@H](C)NC[C@@H]1CN1CCOC[C@H]1C [Compound 126, 1-(4-(4-fluorobenzyl)-2-methoxy-8,8-dimethyl-7,8-dihydro-6H-pyrrolo[2,3-e][1,2,4]triazolo[1,5-a]pyridin-6-yl)-2-((2R,5R)-5-methyl-2-(((R)-3-methylmorpholino)methyl)piperazin-1-yl)ethan-1-one]
- pIC50 (MDA-MB-231 cells): 7.70
- pIC50 (EVSA-T cells): 8.52

SMILES: CC(=O)N(C)c1nc2c(Cc3ccc(F)cc3)cc3c(n2n1)C(C)(C)CN3C(=O)CN1C[C@@H](C)NC[C@@H]1CN1CCOC[C@H]1C [Compound 238, N-(4-(4-fluorobenzyl)-8,8-dimethyl-6-(2-((2R,5R)-5-methy 1-2-(((R)-3-methylmorpholino)methyl)piperazin-1-yl)acetyl)-7,8-dihydro-6H-pyrrolo[2,3-e][1,2,4]triazolo[1,5-a]pyridin-2-yl)-N-methylacetamide]
- pIC50 (MDA-MB-231 cells): 7.51
- pIC50 (EVSA-T cells): 8.89

SMILES: Cc1nc(C#N)c2c(Cc3ccc(F)cc3)cc3c(n12)C(C)(C)CN3C(=O)CN1C[C@@H](C)NC[C@@H]1CN1CCOC[C@H]1C [Compound 130, 4-(4-fluorobenzyl)-1,8,8-trimethyl-6-(2-((2R,5R)-5-methyl-2-(((R)-3-methylmorpholino)methyl)piperazin-1-yl)acetyl)-7,8-dihydro-6H-imidazo[1,5-a]pyrrolo[2,3-e]pyridine-3-carbonitrile]
- pIC50 (MDA-MB-231 cells): 6.64
- pIC50 (EVSA-T cells): 7.43

SMILES: Cc1ncc(Cc2cc3c(n4ncnc24)C(C)(C)CN3C(=O)CN2C[C@@H](C)NC[C@@H]2CN2CCOC[C@H]2C)s1 [Compound 132, 1-(8,8-dimethyl-4-((2-methylthiazol-5-yl)methyl)-7,8-dihydro-6H-pyrrolo[2,3-e][1,2,4]triazolo[1,5-a]pyridin-6-yl)-2-((2R,5R)-5-methyl-2-(((R)-3-methylmorpholino)methyl)piperazin-1-yl)ethan-1-one]
- pIC50 (MDA-MB-231 cells): 6.66
- pIC50 (EVSA-T cells): 7.25

SMILES: C[C@@H]1CN(CC(=O)N2CC(C)(C)c3c2cc(C(F)(F)CC2CC2)c2ncnn32)[C@@H](CN2CCOC[C@H]2C)CN1 [Compound 53, 1-(4-(2-cyclopropyl-1,1-difluoroethyl)-8,8-dimethyl-7,8-dihydro-6H-pyrrolo[2,3-e][1,2,4]triazolo[1,5-a]pyridin-6-yl)-2-((2R,5R)-5-methyl-2-(((R)-3-methylmorpholino)methyl)piperazin-1-yl)ethan-1-one]
- pIC50 (MDA-MB-231 cells): 6.89
- pIC50 (EVSA-T cells): 7.22

SMILES: C[C@@H]1CN(CC(=O)N2CC(C)(C)c3c2cc(Cc2ccc(F)cc2)c2nn(CC(F)(F)F)c(=O)n32)[C@@H](CN2CCOC[C@H]2C)CN1 [Compound 263, 4-(4-fluorobenzyl)-8,8-dimethyl-6-(2-((2R,5R)-5-methyl-2-(((R)-3-methylmorpholino)methyl)piperazin-1-yl)acetyl)-2-(2,2,2-trifluoroethyl)-2,6,7,8-tetrahydro-1H-pyrrolo[2,3-e][1,2,4]triazolo[4,3-a]pyridin-1-one]
- pIC50 (MDA-MB-231 cells): 7.57
- pIC50 (EVSA-T cells): 8.09

SMILES: C[C@@H]1CN(CC(=O)N2CC(C)(C)c3c2cc(Cc2ccc(F)cc2)c2nnc(C#N)n32)[C@@H](CN2CCOC[C@H]2C)CN1 [Compound 153, 4-(4-fluorobenzyl)-8,8-dimethyl-6-(2-((2R,5R)-5-methyl-2-(((R)-3-methylmorpholino)methyl)piperazin-1-yl)acetyl)-7,8-dihydro-6H-pyrrolo[2,3-e][1,2,4]triazolo[4,3-a]pyridine-1-carbonitrile]
- pIC50 (MDA-MB-231 cells): 7.42
- pIC50 (EVSA-T cells): 8.30

SMILES: C[C@@H]1CN(CC(=O)N2CC(C)(C)c3c2cc(Cc2ccc(F)cc2)c2nc(C(=O)NC4CC4)nn32)[C@@H](CN2CCOC[C@H]2C)CN1 [Compound 257, N-cyclopropyl-4-(4-fluorobenzyl)-8,8-dimethyl-6-(2-((2R,5R)-5-methyl-2-(((R)-3-methylmorpholino)methyl)piperazin-1-yl)acetyl)-7,8-dihydro-6H-pyrrolo[2,3-e][1,2,4]triazolo[1,5-a]pyridine-2-carboxamide]
- pIC50 (MDA-MB-231 cells): 6.85
- pIC50 (EVSA-T cells): 7.94

SMILES: C[C@@H]1CN(CC(=O)N2CC(C)(C)c3c2cc(Cc2ccc(F)cc2N)c2ncnn32)[C@@H](CN2CCOC[C@H]2C)CN1 [Compound 129, 1-(4-(2-amino-4-fluorobenzyl)-8,8-dimethyl-7,8-dihydro-6H-pyrrolo[2,3-e][1,2,4]triazolo[1,5-a]pyridin-6-yl)-2-((2R,5R)-5-methyl-2-(((R)-3-methylmorpholino)methyl)piperazin-1-yl)ethan-1-one]
- pIC50 (MDA-MB-231 cells): 7.34
- pIC50 (EVSA-T cells): 7.96

SMILES: COc1cc(F)ccc1Cc1cc2c(n3ncnc13)C(C)(C)CN2C(=O)CN1C[C@@H](C)NC[C@@H]1CN1CCOC[C@H]1C [Compound 41, 1-(4-(4-fluoro-2-methoxybenzyl)-8,8-dimethyl-7,8-dihydro-6H-pyrrolo[2,3-e][1,2,4]triazolo[1,5-a]pyridin-6-yl)-2-((2R,5R)-5-methyl-2-(((R)-3-methylmorpholino)methyl)piperazin-1-yl)ethan-1-one]
- pIC50 (MDA-MB-231 cells): 7.11
- pIC50 (EVSA-T cells): 7.85

SMILES: C[C@@H]1CN(CC(=O)N2CC(C)(C)c3c2cc(Cc2ccc(F)cc2)c2nn(C)c(=O)n32)[C@@H](CN2CCOC[C@H]2C)CN1 [Compound 135, 4-(4-fluorobenzyl)-2,8,8-trimethyl-6-(2-((2R,5R)-5-methyl-2-(((R)-3-methylmorpholino)methyl)piperazin-1-yl)acetyl)-2,6,7,8-tetrahydro-1H-pyrrolo[2,3-e][1,2,4]triazolo[4,3-a]pyridin-1-one]
- pIC50 (MDA-MB-231 cells): 7.40
- pIC50 (EVSA-T cells): 8.40

SMILES: C[C@@H]1CN(CC(=O)N2CC(C)(C)c3c2cc(Cc2ccc(F)cc2)c2nc(CF)nn32)[C@@H](CN2CCOC[C@H]2C)CN1 [Compound 144, 1-(4-(4-fluorobenzyl)-2-(fluoromethyl)-8,8-dimethyl-7,8-dihydro-6H-pyrrolo[2,3-e][1,2,4]triazolo[1,5-a]pyridin-6-yl)-2-((2R,5R)-5-methyl-2-(((R)-3-methylmorpholino)methyl)piperazin-1-yl)ethan-1-one]
- pIC50 (MDA-MB-231 cells): 7.29
- pIC50 (EVSA-T cells): 8.52

More lines, in order of rising pIC50 (MDA-MB-231 cells), values ahead:

- pIC50 (MDA-MB-231 cells): 6.72
SMILES: C[C@@H]1CN(CC(=O)N2CC(C)(C)c3c2cc(Cc2ccc(F)cc2)c2nnc(C4CC4)n32)[C@@H](CN2CCOC[C@H]2C)CN1 [Example 12, 1-(1-cyclopropyl-4-(4-fluorobenzyl)-8,8-dimethyl-7,8-dihydro-6H-pyrrolo[2,3-e][1,2,4]triazolo[4,3-a]pyridin-6-yl)-2-((2R,5R)-5-methyl-2-(((R)-3-methylmorpholino)methyl)piperazin-1-yl)ethan-1-one]
- pIC50 (EVSA-T cells): 7.92

- pIC50 (MDA-MB-231 cells): 6.92
SMILES: C[C@@H]1CN(CC(=O)N2CC(C)(C)c3c2cc(Cc2ccc(F)cc2)c2ncc(Cl)n32)[C@@H](CN2CCOC[C@H]2C)CN1 [Compound 118, 1-(1-chloro-4-(4-fluorobenzyl)-8,8-dimethyl-7,8-dihydro-6H-imidazo[1,2-a]pyrrolo[2,3-e]pyridin-6-yl)-2-((2R,5R)-5-methyl-2-(((R)-3-methylmorpholino)methyl)piperazin-1-yl)ethan-1-one]
- pIC50 (EVSA-T cells): 8.00

- pIC50 (MDA-MB-231 cells): 7.15
SMILES: C[C@@H]1CN(CC(=O)N2CC(C)(C)c3c2cc(Cc2ccc(F)cc2)c2nc(CO)nn32)[C@@H](CN2CCOC[C@H]2C)CN1 [Compound 37, 1-(4-(4-fluorobenzyl)-2-(hydroxymethyl)-8,8-dimethyl-7,8-dihydro-6H-pyrrolo[2,3-e][1,2,4]triazolo[1,5-a]pyridin-6-yl)-2-((2R,5R)-5-methyl-2-(((R)-3-methylmorpholino)methyl)piperazin-1-yl)ethan-1-one]
- pIC50 (EVSA-T cells): 8.40

- pIC50 (MDA-MB-231 cells): 7.59
SMILES: C[C@@H]1CN(CC(=O)N2CC(C)(C)c3c2cc(Cc2ccc(F)cc2)c2ncnn32)[C@@H](CN2Cc3ccccc3C2=O)CN1 [Compound 94, 2-(((2R,5R)-1-(2-(4-(4-fluorobenzyl)-8,8-dimethyl-7,8-dihydro-6H-pyrrolo[2,3-e][1,2,4]triazolo[1,5-a]pyridin-6-yl)-2-oxoethyl)-5-methylpiperazin-2-yl)methyl)isoindolin-1-one]
- pIC50 (EVSA-T cells): 8.40

- pIC50 (MDA-MB-231 cells): 7.64
SMILES: C[C@@H]1CN(CC(=O)N2CC(C)(C)c3c2cc(Cc2ccc(F)cc2)c2nn(C4CCC4O)c(=O)n32)[C@@H](CN2CCOC[C@H]2C)CN1 (stereo partly drawn) [Compound 273A, 4-(4-fluorobenzyl)-2-(2-hydroxycyclobutyl)-8,8-dimethyl-6-(2-((2R,5R)-5-methyl-2-(((R)-3-methylmorpholino)methyl)piperazin-1-yl)acetyl)-2,6,7,8-tetrahydro-1H-pyrrolo[2,3-e][1,2,4]triazolo[4,3-a]pyridin-1-one]
- pIC50 (EVSA-T cells): 8.91

- pIC50 (MDA-MB-231 cells): 8.40
SMILES: C[C@@H]1CN(CC(=O)N2CC(C)(C)c3c2cc(Cc2ccc(F)cc2)c2nc(-c4ccn[nH]4)nn32)[C@@H](CN2CCOC[C@H]2C)CN1 [Compound 247, 1-(4-(4-fluorobenzyl)-8,8-dimethyl-2-(1H-pyrazol-5-yl)-7,8-dihydro-6H-pyrrolo[2,3-e][1,2,4]triazolo[1,5-a]pyridin-6-yl)-2-((2R,5R)-5-methy 1-2-(((R)-3-methylmorpholino)methyl)piperazin-1-yl)ethan-1-one]
- pIC50 (EVSA-T cells): 8.21
